From patent US20160047748A1, “FLUORESCENT PROBE” (THE UNIVERSITY OF TOKYO, priority 2013, published 2016)

Tests used:
[1] = test system: HeLa cells; experiment: Ca^2+-imaging of living cells; format: cell-based
Description: Ca^2+-imaging of living cells was carried out using CaTM-3-AM. In order to study the utility thereof, a comparison was made with CaTM-2-AM(N-[2-[(acetyloxy)]-2-oxoethyl]amino]-N-[2-[2-[2-[bis[2-[(acetyloxy)methoxy]-2-oxoethyl]amino]-5-[[4-(1,8-dichloro-2,9-dihydro-7-hydroxy-9,9-dimethyl-2-oxo-9-silaanthracen-10-yl)-3-methylbenzoyl]amino]phenoxy]ethoxy]phenyl]-glycine(acetyloxy)methyl ester), which has a methyl group at position 2 of the benzene ring instead of a carboxy group. HeLa cells were incubated for 30 minutes at 37° C. together with 3 μM of CaTM-2-AM or CaTM-3-AM in a Hank's balanced salt solution (HBSS) containing 0.03% DMSO. The cells were washed three times using HBSS, then HBSS was added and the cells were observed using a confocal microscope SP5 (Leica) with an excitation wavelength of 590 nm and a fluorescence wavelength of 610 to 680 nm.
Ca^2+ imaging was carried out during stimulation by histamine and ionomycin using cells to which CaTM-3-AM had been added. Histamine hydrochloride (1 μM) was added after 1 minute from the beginning of observation, and ionomycin (5 μM) was added after 4 minutes from the beginning of observation.

[2] = physchem; format: physicochemical
Description: (§1) The optical characteristics, absorbance spectra, and fluorescence spectra of the resulting ZnTM-1 depending on pHs are shown in FIG. 1. The pH-induced changes were measured using ZnTM-1 (1 μM) in a buffer of 0.1M sodium phosphate containing 15% DMSO. pKa was determined by biphasic fitting using the absorbance at the absorbance maximum wavelength. EDTA (100 μM) was added in order to eliminate the effect of trace metal ions during the measurement of quantum yield when Zn^2+ had not been added, and then measurement was carried out.

[3] = Optical characteristics, Zn^2+ addition experiment; format: physicochemical; details: for Φf1: fluorescence quantum yield
Description: as §1, with “Zn^2+ addition experiment was carried out by adding ZnSO4 to a solution obtained by adding” for “pH-induced changes were measured using”, “HEPES (pH 7.4)” for “sodium phosphate”

[4] = test system: HeLa cells; experiment: Cell imaging using ZnTM-1; format: cell-based; details: 10 μM, 30 min at 37° C., HBSS 1% DMSO, ZnSO4 (50 μM)/pyrithione (5 μM), then TPEN (100 μM)
Description: Cell imaging was carried out using ZnTM-1. HeLa cells were incubated for 30 minutes at 37° C. together with 10 μM of ZnTM-1 in a Hank's balanced salt solution (HBSS) containing 1% DMSO. The mixture was washed once using HBSS, then HBSS was added and the cells were observed using an epifluorescence microscope IX-71 (Olympus) with an excitation wavelength of 565 to 585 nm and a fluorescence wavelength of 600 to 690 nm. The observation was carried out in every 30 seconds, ZnSO4 (50 μM) and pyrithione (5 μM), which is an ionophore, were added after 2 minutes and 30 seconds from the beginning of observation, and TPEN (100 μM), which is a cell-membrane-permeating zinc chelator, was added after 6 minutes from the beginning of observation.

[5] = ZnTM-1 1 μM, 0.1M HEPES (pH 7.4) containing 15% DMSO, Zn^2+ not added

Structure (SMILES) | Brightness of fluorescence image ([1]; HeLa cells, 3 μM, 30 min at 37° C., HBSS 0.03% DMSO, excitation 590 nm, fluorescence 610 to 680 nm) | Quantity of fluorescent probe taken into cells ([1]; HeLa cells, 3 μM, 30 min at 37° C., compared with CaTM-2-AM) | Detection of variation in intracellular Ca^2+ during stimulation ([1]; histamine hydrochloride (1 μM) after 1 minute, ionomycin (5 μM) after 4 minutes) | pKa [2] | λabs (nm) [3, 5] [nm] | λf1 (nm) [3, 5] [nm] | Φf1 ([3]; + 10 eq Zn^2+ (ZnSO4), 0.1M HEPES (pH 7.4) containing 15% DMSO) | Φf1 ([3]; Zn^2+ not added, EDTA (100 μM) added) | Cell uptake and function as Zn^2+-detecting fluorescent probe [4]
CC(=O)OCOC(=O)CN(CC(=O)OCOC(C)=O)c1ccccc1OCCOc1cc(NC(=O)c2ccc(C3=C4C=CC(=O)C(Cl)=C4[Si](C)(C)c4c3ccc(O)c4Cl)c(C(=O)O)c2)ccc1N(CC(=O)OCOC(C)=O)CC(=O)OCOC(C)=O [CaTM-3-AM, 5-[[[4-[bis[2-[(acetyloxy)methoxy]-2-oxoethyl]amino]-5-[2-[2-[bis[2-[(acetyloxy)methoxy]-2-oxoethyl]amino]phenoxy]ethoxy]-phenyl]amino]carbonyl]-2-(1,8-dichloro-2,9-dihydro-7-hydroxy-9,9-dimethyl-2-oxo-9-silaanthracen-10-yl)-benzoic acid] | brighter fluorescence image than does CaTM-2-AM | a larger quantity of fluorescent probes is taken into cells | can be accurately ascertained | – | – | – | – | – | –
C[Si]1(C)C2=C(F)C(=O)C=CC2=C(c2ccc(C(=O)Nc3ccc(NCCN(Cc4ccccn4)Cc4ccccn4)cc3)cc2C(=O)O)c2ccc(O)c(F)c21 [ZnTM-1, 5-[[[4-[[2-[bis(2-pyridinylmethyl)amino]ethyl]amino]phenyl]amino]carbonyl]-2-(1,8-difluoro-2,9-dihydro-7-hydroxy-9,9-dimethyl-2-oxo-9-silaanthracen-10-yl)benzoic acid] | – | – | – | 7.2 | 589 | 601 | 0.281 | 0.062 | is taken into the cell and functions effectively as a Zn^2+-detecting fluorescent probe
